This note sets out measurements from US4780466A, “Arylpiperazinylalkoxy derivatives of cyclic imides” (Hoechst-Roussel Pharmaceuticals, Inc., priority 1988, dated 1988).

Where a name gives a salt, the structure may show the parent alone.

Assay type in all cases: in vivo
Experiment [1] has as its system mice. The experiment is described as follows: 2-phenyl-1,4-benzoquinone-induced writhing test in mice (analgesic activity). The settings on record: Mus musculus, sc, read-out: Phenylquinone Writhing ED50. From the text:
Compounds of the present invention are also useful as analgesic agents due to their ability to alleviate pain in mammals. […] Exptl. Biol. Med., 95,729 (1957)]
(In general: Writhing tests count abdominal constrictions after an irritant is injected.)

A further experiment has as its system rats. The experiment is described as follows: Geller-conflict paradigm with rats (anxiolytic activity). The settings on record: 10 mg/kg i.p.; pretreat interval usually one-half hour; male rats. From the text: Compounds I of the present invention are also useful as anxiolytic agents. […] See Geller, Irving and Seifter, Psychopharmacologia Col. 1, 482-492 (1962). Male rats are used as test subjects. They are housed individually and food and water are available ad libitum until they are 300 to 400 grams prior to the start of training. Subsequently they are food deprived until their body weight is reduced to approximately 80% of original and it is maintained at this level by a restricted food diet.
The programming and test equipment consists of solid state devices, shockers and cages within sound-attentuated environmental enclosures. The data is recorded on both solid state print-out counters and cumulative recorders. The cages are equipped with a house-light, a single-lever, cue-lights, a liquid dipper, a speaker and a grid-floor connected to a shocker. Sweetened condensed milk delivered by the liquid-dipper serve as the positive reinforcement for all subjects.
The subjects are trained to lever-press for the milk reward in two distinct response-reward sections. In the anxiety or "conflict" segment, signaled by onset of both tone and cue-lights, a dipper of milk is delivered in response to each lever-press (CRF schedule of reinforcement). However lever presses during this period are also accompanied by a 40 m sec pulse of aversive footshock through the grid-floor. […]

The subject of experiment [2] is mice. The experiment is described as follows: Climbing mice assay (antipsychotic activity, apomorphine-induced climbing). The settings on record: Mus musculus; ip, 30 minutes prior to apomorphine 1.5 mg/kg s.c.; CK-1 male mice. The method, then:
Antipsychotic activity is determined in the climbing mice assay by methods similar to those described by P. Protais, et al., Psychopharmacol., 50, 1 (1976) and B. Costall, Eur. J. Pharmacol., 50, 39, (1978).
The subject CK-1 male mice (23-27 grams) are group-housed under standard laboratory conditions. The mice are individually placed in wire mesh stick cages (4'×4" by 10") and are allowed one hour for adaptation and exploration of the new environment. Then apomorphine is injected subcutaneously at 1.5 mg/kg, a dose causing climbing in all subjects for 30 minutes. Compounds to be tested for antipsychotic activity are injected intraperitoneally 30 minutes prior to the apomorphine challenge at a screening dose of 10 mg/kg.
For evaluation of climbing, 3 readings are taken at 10, 20 and 30 minutes after apomorphine administration according to the following scale:
4 paws on bottom (no climbing)
2 paws on the wall (rearing)
4 paws on the wall (full climb)
Mice consistently climbing before the injection of apomorphine are discarded.
With full-developed apomorphine climbing, the animals are hanging onto the cage walls, rather motionless, over longer periods of time. By constrast, climbs due to mere motor stimulation usually last only a few seconds.
The climbing scores are individually totaled (maximum score: 6 per mouse over 3 readings) and the total score of the control group (vehicle intraperitoneally; apomorphine subcutaneously) is set to 100%. ED50 values with 95% confidence limits, calculated by a linear regression analysis of some of the compounds of this invention are presented in Table 1.

What is called ED50 is the dose at which the effect has come halfway, by size or by number of responders.

In the case of `COc1ccccc1N1CCN(CCCON2C(=O)CC3(CCCC3)CC2=O)CC1` [8-[3-[4-(2-Methoxyphenyl)-1-piperazinyl-propyloxy]-8-azaspiro[4.5]decan-7,9-dione hydrochloride hemihydrate], in the experiment on mice [1], the ED50 was 1.1 mg/kg.
`CNC1=Nc2ccc(Cl)cc2C(c2ccccc2)=[N+]([O-])C1` [Chlorodiazepoxide, reference compound]: in the experiment on rats, the “Geller CRF ratio” value is on record as 3.6.
`CN1CCN(C2=Nc3cc(Cl)ccc3Nc3ccccc32)CC1` [Clazapine, reference compound]: in the experiment on mice [2], the ED50 amounted to 8.1 mg/kg.
Consider `Cc1cccc(N2CCN(CCCON3C(=O)CC4(CCCC4)CC3=O)CC2)c1` [Example 5, 8-[3-[4-(3-Methylphenyl)-1-piperazinyl]propyloxy]-8-azaspiro[4.5]decan-7,9-dione hydrochloride hemihydrate], for which, in the experiment on rats, the “Geller CRF ratio” value is 7.5.
`COc1cccc(N2CCN(CCCON3C(=O)CC4(CCCC4)CC3=O)CC2)c1` [Example 8, 8-[3-[4-(3-Methoxyphenyl)-1-piperazinyl]propyloxy]-8-azaspiro-[4.5]decan-7,9-dione hydrochloride hemihydrate] showed an ED50 in the experiment on mice [2] of 10.9 mg/kg.
For `O=C1CC2(CCCC2)CC(=O)N1OCCCN1CCN(c2nsc3ccccc23)CC1` [Example 11, 8-[3-[4-(1,2-Benzisothiazol-3-yl)-1-piperazinyl]propyloxy]-8-azaspiro[4.5]decan-7,9-dione hydrochloride hemihydrate], the ED50 in the experiment with mice [2] worked out at 5.7 mg/kg; in the experiment with mice [1], 0.9 mg/kg.
With `CC(C)=CCN1CCC2(C)c3cc(O)ccc3CC1C2C` (centres unmarked) [Pentazocine, reference compound], the ED50 with mice [1] was found to be 1.3 mg/kg.
